Reference: patent US20220023289A1, “Application Of Pyrroloquinoline Quinone In Preparation Of Medicament Used For Preventing And Treating Acute Altitude Sickness And Acute Altitude Hypoxia Injury” (priority 2018, published 2022)

What was measured:
[1] = tested on: mice exposed to high altitude hypoxia; assay: Exhaustive swimming experiment in mice exposed to high altitude hypoxia (6000 m); format: in vivo, Kunming mice; settings: for Exhausted swimming survival time: 7 days
Text: Select healthy male Kunming mice weight 18-22 g.

[2] = Body weight of mice before closed hypoxia tolerance test
[3] = Mice weight before hypoxia tolerance test of simulated 10000 m altitude acute decompression
[4] = administration for 14 days, 1.32 mg/kg
[5] = administration for 14 days, 2.64 mg/kg
[6] = administration for 14 days, 5.28 mg/kg
[7] = administration for 14 days, 10.56 mg/kg
[8] = administration for 14 days, 21.12 mg/kg
[9] = administration for seven days, 1.32 mg/kg
[10] = administration for seven days, 2.64 mg/kg
[11] = administration for seven days, 5.28 mg/kg
[12] = administration for seven days, 10.56 mg/kg
[13] = administration for seven days, 21.12 mg/kg
[14] = administration for three days, 1.32 mg/kg
[15] = administration for three days, 2.64 mg/kg
[16] = administration for three days, 5.28 mg/kg
[17] = administration for three days, 10.56 mg/kg
[18] = administration for three days, 21.12 mg/kg
[19] = seven days, repeat experiment in male mice, 1.32 mg/kg
[20] = seven days, repeat experiment in male mice, 2.64 mg/kg
[21] = seven days, repeat experiment in male mice, 5.28 mg/kg
[22] = seven days, repeat experiment in male mice, 10.56 mg/kg
[23] = seven days, repeat experiment in male mice, 21.12 mg/kg

O=C(O)c1cc(C(=O)O)c2c(n1)C(=O)C(=O)c1cc(C(=O)O)[nH]c1-2 [PQQ, pyrroloquinoline quinone]
start time of exhaustion swimming death ([1]; male mice, 6000 m): delayed | increasing rate of survival time ([1]; male mice, 6000 m, 1.32 mg/kg): 52.49% | increasing rate of survival time ([1]; male mice, 6000 m, 2.64 mg/kg): 109.05% | increasing rate of survival time ([1]; male mice, 6000 m, 5.28 mg/kg): 32.54% | increasing rate of survival time ([1]; male mice, 6000 m, 10.56 mg/kg): 49.30% | increasing rate of survival time ([1]; male mice, 6000 m, 21.12 mg/kg): 101.47% | Exhausted swimming survival time ([1]; male mice, 6000 m, 1.32 mg/kg): 199.21 ± 98.54 min | Exhausted swimming survival time ([1]; male mice, 6000 m, 2.64 mg/kg): 273.10 ± 63.07 min | Exhausted swimming survival time ([1]; male mice, 6000 m, 5.28 mg/kg): 173.15 ± 116.32 min | Exhausted swimming survival time ([1]; male mice, 6000 m, 10.56 mg/kg): 195.04 ± 59.81 min | Exhausted swimming survival time ([1]; male mice, 6000 m, 21.12 mg/kg): 263.20 ± 48.27 min | time at which mice are completely dead ([1]; male mice, 6000 m, each PQQ dose group): about 400 minutes | effect on survival time after exhausting swimming / working ability under hypoxia ([1]; mice under low oxygen exposure): can prolong the survival time of mice after exhausting swimming | weight 1 day ([2]; female mice, 1.32 mg/kg): 20.31 ± 1.29 g | weight 3 days ([2]; female mice, 1.32 mg/kg): 22.33 ± 1.91 g | weight 1 day ([2]; female mice, 2.64 mg/kg): 19.83 ± 1.19 g | weight 3 days ([2]; female mice, 2.64 mg/kg): 22.22 ± 1.28 g | weight 1 day ([2]; female mice, 5.28 mg/kg): 20.58 ± 1.07 g | weight 3 days ([2]; female mice, 5.28 mg/kg): 22.52 ± 1.71 g | weight 1 day ([2]; female mice, 10.56 mg/kg): 20.13 ± 1.64 g | weight 3 days ([2]; female mice, 10.56 mg/kg): 21.92 ± 1.83 g | weight 1 day ([2]; female mice, 21.12 mg/kg): 20.19 ± 1.34 g | weight 3 days ([2]; female mice, 21.12 mg/kg): 22.49 ± 1.77 g | weight 1 day ([2]; male mice, 1.32 mg/kg): 15.46 ± 1.04 g | weight 3 days ([2]; male mice, 1.32 mg/kg): 17.74 ± 1.30 g | weight 1 day ([2]; male mice, 2.64 mg/kg): 15.40 ± 1.03 g | weight 3 days ([2]; male mice, 2.64 mg/kg): 17.46 ± 1.29 g | weight 1 day ([2]; male mice, 5.28 mg/kg): 15.51 ± 1.11 g | weight 3 days ([2]; male mice, 5.28 mg/kg): 17.41 ± 1.23 g | weight 1 day ([2]; male mice, 10.56 mg/kg): 15.32 ± 1.10 g | weight 3 days ([2]; male mice, 10.56 mg/kg): 16.20 ± 1.03 g | weight 1 day ([2]; male mice, 21.12 mg/kg): 15.45 ± 0.97 g | weight 3 days ([2]; male mice, 21.12 mg/kg): 17.54 ± 1.14 g | Mice weight Female 1 day [3, 4]: 16.13 ± 1.20 g | Mice weight Female 7 days [3, 4]: 20.45 ± 1.37 g | Mice weight Male 1 day [3, 4]: 16.36 ± 1.47 g | Mice weight Male 7 days [3, 4]: 22.88 ± 1.78 g | Mice weight Male 14 days [3, 4]: 30.85 ± 2.32 g | Mice weight Female 1 day [3, 5]: 15.75 ± 1.07 g | Mice weight Female 7 days [3, 5]: 21.41 ± 1.62 g | Mice weight Male 1 day [3, 5]: 16.63 ± 1.87 g | Mice weight Male 7 days [3, 5]: 22.58 ± 1.41 g | Mice weight Male 14 days [3, 5]: 28.13 ± 2.70 g | Mice weight Female 1 day [3, 6]: 15.63 ± 1.12 g | Mice weight Female 7 days [3, 6]: 20.47 ± 2.11 g | Mice weight Male 1 day [3, 6]: 17.01 ± 1.91 g | Mice weight Male 7 days [3, 6]: 23.68 ± 2.02 g | Mice weight Male 14 days [3, 6]: 29.44 ± 2.15 g | Mice weight Female 1 day [3, 7]: 15.84 ± 1.33 g | Mice weight Female 7 days [3, 7]: 21.68 ± 1.66 g | Mice weight Male 1 day [3, 7]: 16.58 ± 1.68 g | Mice weight Male 7 days [3, 7]: 23.13 ± 1.73 g | Mice weight Male 14 days [3, 7]: 19.58 ± 2.11 g | Mice weight Female 1 day [3, 8]: 15.68 ± 0.91 g | Mice weight Female 7 days [3, 8]: 20.10 ± 2.07 g | Mice weight Male 1 day [3, 8]: 16.86 ± 1.71 g | Mice weight Male 7 days [3, 8]: 23.67 ± 1.77 g | Mice weight Male 14 days [3, 8]: 30.81 ± 2.76 g | Mice weight Female 1 day [3, 9]: 18.10 ± 1.19 g | Mice weight Female 7 days [3, 9]: 21.36 ± 1.98 g | Mice weight Male 1 day [3, 9]: 18.46 ± 1.36 g | Mice weight Male 7 days [3, 9]: 22.19 ± 2.69 g | Mice weight Female 1 day [3, 10]: 18.19 ± 1.24 g | Mice weight Female 7 days [3, 10]: 21.40 ± 1.92 g | Mice weight Male 1 day [3, 10]: 18.31 ± 1.01 g | Mice weight Male 7 days [3, 10]: 23.51 ± 3.09 g | Mice weight Female 1 day [3, 11]: 17.95 ± 1.28 g | Mice weight Female 7 days [3, 11]: 22.71 ± 1.38 g | Mice weight Male 1 day [3, 11]: 18.38 ± 1.85 g | Mice weight Male 7 days [3, 11]: 22.04 ± 3.25 g | Mice weight Female 1 day [3, 12]: 17.99 ± 1.41 g | Mice weight Female 7 days [3, 12]: 22.66 ± 1.68 g | Mice weight Male 1 day [3, 12]: 18.26 ± 1.15 g | Mice weight Male 7 days [3, 12]: 22.41 ± 1.79 g | Mice weight Female 1 day [3, 13]: 18.35 ± 1.62 g | Mice weight Female 7 days [3, 13]: 23.94 ± 2.10 g | Mice weight Male 1 day [3, 13]: 18.00 ± 1.78 g | Mice weight Male 7 days [3, 13]: 23.54 ± 3.92 g | Mice weight Female [3, 14]: 18.22 ± 1.16 g | Mice weight Male [3, 14]: 19.97 ± 0.84 g | Mice weight Female [3, 15]: 18.79 ± 1.14 g | Mice weight Male [3, 15]: 19.65 ± 0.83 g | Mice weight Female [3, 16]: 18.10 ± 0.76 g | Mice weight Male [3, 16]: 20.16 ± 1.18 g | Mice weight Female [3, 17]: 17.95 ± 1.14 g | Mice weight Male [3, 17]: 19.73 ± 0.85 g | Mice weight Female [3, 18]: 18.48 ± 1.01 g | Mice weight Male [3, 18]: 19.28 ± 0.95 g | Mice weight Male 1 day [3, 19]: 19.84 ± 1.84 g | Mice weight Male 7 days [3, 19]: 27.14 ± 2.66 g | Mice weight Male 1 day [3, 20]: 19.66 ± 1.08 g | Mice weight Male 7 days [3, 20]: 26.78 ± 3.14 g | Mice weight Male 1 day [3, 21]: 19.75 ± 1.27 g | Mice weight Male 7 days [3, 21]: 26.47 ± 2.88 g | Mice weight Male 1 day [3, 22]: 19.90 ± 1.06 g | Mice weight Male 7 days [3, 22]: 27.33 ± 2.27 g | Mice weight Male 1 day [3, 23]: 19.85 ± 1.00 g | Mice weight Male 7 days [3, 23]: 26.73 ± 2.37 g | Mice weight Female ([3]; single dose test, 2.64 mg/kg): 17.25 ± 1.23 g | Mice weight Male ([3]; single dose test, 2.64 mg/kg): 19.71 ± 0.52 g | Mice weight Female ([3]; single dose test, 5.28 mg/kg): 17.32 ± 1.35 g | Mice weight Male ([3]; single dose test, 5.28 mg/kg): 19.51 ± 0.68 g | Mice weight Female ([3]; single dose test, 10.56 mg/kg): 17.24 ± 0.96 g | Mice weight Male ([3]; single dose test, 10.56 mg/kg): 19.16 ± 0.34 g
